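These data come from cells grown in 96-well plates and exposed to compound for 48 hours at five concentrations. GI50: concentration for 50% inhibition of growth.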 Calls of active or inactive are those of the source. Cut-off read from the data, not from the text of the source: active = GI50 up to about 1.1 µM and inactive = higher.
Assays:
Test in all cases: NCI-60 cell line screen, 48 h
UO-31 = system: UO-31
SNB-75 = system: SNB-75
NCI-H522 = system: NCI-H522
PC-3 = system: PC-3
Hs-578T = system: Hs-578T
SK-MEL-28 = system: SK-MEL-28
BT-549 = system: BT-549
SF-295 = system: SF-295
NCI-H226 = system: NCI-H226
MOLT-4 = system: MOLT-4
HT-29 = system: HT-29
A498 = system: A498
OVCAR-5 = system: OVCAR-5
T47D = system: T47D

| SMILES | GI50 (UO-31) | GI50 (SNB-75) | GI50 (NCI-H522) | GI50 (PC-3) | GI50 (Hs-578T) | GI50 (SK-MEL-28) | GI50 (BT-549) | GI50 (SF-295) | GI50 (NCI-H226) | GI50 (MOLT-4) | GI50 (HT-29) | GI50 (A498) | GI50 (OVCAR-5) | GI50 (T47D) |
| --- | --- | --- | --- | --- | --- | --- | --- | --- | --- | --- | --- | --- | --- | --- |
| Nc1n[nH]c2nc3ccccc3nc12 [QUINOXALINE1] | 39.6 µM (inactive) | 37.1 µM (inactive) | 44.1 µM (inactive) | > 100 µM (inactive) | 39 µM (inactive) | > 100 µM (inactive) | 64.6 µM (inactive) | > 100 µM (inactive) | 91.8 µM (inactive) | 61.1 µM (inactive) | 59.6 µM (inactive) | 33.7 µM (inactive) | 38 µM (inactive) | – |
| Cc1cnc(/C=N\NC(N)=S)c2cccc(N)c12 | 0.52 µM (active) | 0.553 µM (active) | 0.871 µM (active) | 2.27 µM (inactive) | > 100 µM (inactive) | 3.27 µM (inactive) | 0.536 µM (active) | 1.97 µM (inactive) | 1.39 µM (inactive) | 0.34 µM (active) | 0.711 µM (active) | 10.8 µM (inactive) | 5.46 µM (inactive) | 0.497 µM (active) |
| CC(=O)OCC1OC(n2c(-c3ccc(C)cc3)cc(-c3ccco3)c(C#N)c2=S)C(OC(C)=O)C(OC(C)=O)C1OC(C)=O (stereo unspecified) | 28.9 µM (inactive) | 25.1 µM (inactive) | 50.4 µM (inactive) | > 100 µM (inactive) | 27.9 µM (inactive) | > 100 µM (inactive) | 38.7 µM (inactive) | > 100 µM (inactive) | 25.2 µM (inactive) | > 100 µM (inactive) | > 100 µM (inactive) | 61.7 µM (inactive) | > 100 µM (inactive) | 20.6 µM (inactive) |
| O=[N+]([O-])C(=C/c1ccccc1)/C(=C\c1ccccc1)[N+](=O)[O-] | 17.5 µM (inactive) | 18.4 µM (inactive) | – | 19.3 µM (inactive) | 56.2 µM (inactive) | 15.9 µM (inactive) | 17.6 µM (inactive) | 18.7 µM (inactive) | 19.1 µM (inactive) | 3.2 µM (inactive) | 17.6 µM (inactive) | – | 22 µM (inactive) | 23.8 µM (inactive) |
| COc1cc2c(cc1OC)-c1cc3ccccc3c(=O)n1CC2 | 19.9 µM (inactive) | 11.9 µM (inactive) | 16.1 µM (inactive) | 2.68 µM (inactive) | 11.4 µM (inactive) | 27.7 µM (inactive) | 29.2 µM (inactive) | 15.3 µM (inactive) | 26.8 µM (inactive) | 26.1 µM (inactive) | 24.8 µM (inactive) | – | 31.8 µM (inactive) | 21.8 µM (inactive) |
| COc1ccc2c(c1)CC1Cc3ccccc3CCN1C2 (stereo unspecified) | 37.2 µM (inactive) | > 100 µM (inactive) | 15.3 µM (inactive) | 25.9 µM (inactive) | 41.2 µM (inactive) | > 100 µM (inactive) | > 100 µM (inactive) | 29.2 µM (inactive) | 89.1 µM (inactive) | 80.5 µM (inactive) | 32.4 µM (inactive) | – | 22.6 µM (inactive) | 35.2 µM (inactive) |
| Cc1ccc(S(N)(C(=O)Nc2cccc3ccccc23)[N+](=O)[O-])cc1 (stereo unspecified) | 35.7 µM (inactive) | > 100 µM (inactive) | – | 50.4 µM (inactive) | > 100 µM (inactive) | > 100 µM (inactive) | > 100 µM (inactive) | 89.7 µM (inactive) | > 100 µM (inactive) | 29.5 µM (inactive) | > 100 µM (inactive) | > 100 µM (inactive) | > 100 µM (inactive) | 46.2 µM (inactive) |
| COc1nc2ccc(CNc3ccc(C(=O)NC(CCC(=O)O)C(=O)O)cc3)cc2nc1OC (stereo unspecified) | > 100 µM (inactive) | > 100 µM (inactive) | > 100 µM (inactive) | 44.6 µM (inactive) | > 100 µM (inactive) | > 100 µM (inactive) | > 100 µM (inactive) | > 100 µM (inactive) | > 100 µM (inactive) | 18.8 µM (inactive) | > 100 µM (inactive) | > 100 µM (inactive) | > 100 µM (inactive) | > 100 µM (inactive) |

From ChEMBL document CHEMBL1201862, “PubChem BioAssay data set” (2004)
